# Data taken from the supplement of paper PMC13380429.
# Counter-ions that a name gives are not always drawn.
# What was measured:
# Conditions in all cases: 72 h
# HepG2 [1] = assay: drug sensitivity score (DSS) for viability; higher = more toxic; extreme values may be limits of the assay
# Vero E6 [2] = assay: as above
# Caco-2 [3] = assay: as above
# Calu-3 [4] = assay: as above
# U2OS [5] = assay: as above
# HepG2 [6] = assay: cell viability relative to DMSO; higher = less toxic
# Vero E6 [7] = assay: as above
# Caco-2 [8] = assay: as above
# Calu-3 [9] = assay: as above
# U2OS [10] = assay: as above
# HepG2 [11] = assay: relative viability EC50 (midpoint between 100% and the lowest measured viability); higher = less toxic
# Vero E6 [12] = assay: as above
# Caco-2 [13] = assay: as above
# Calu-3 [14] = assay: as above
# U2OS [15] = assay: as above
SMILES,drug sensitivity score (HepG2 [1]),drug sensitivity score (Vero E6 [2]),drug sensitivity score (Caco-2 [3]),drug sensitivity score (Calu-3 [4]),drug sensitivity score (U2OS [5]),cell viability (HepG2 [6]; 1 nM) [%],cell viability (HepG2 [6]; 10 nM) [%],cell viability (HepG2 [6]; 100 nM) [%],cell viability (HepG2 [6]; 1000 nM) [%],cell viability (HepG2 [6]; 10000 nM) [%],cell viability (Vero E6 [7]; 1 nM) [%],cell viability (Vero E6 [7]; 10 nM) [%],cell viability (Vero E6 [7]; 100 nM) [%],cell viability (Vero E6 [7]; 1000 nM) [%],cell viability (Vero E6 [7]; 10000 nM) [%],cell viability (Caco-2 [8]; 1 nM) [%],cell viability (Caco-2 [8]; 10 nM) [%],cell viability (Caco-2 [8]; 100 nM) [%],cell viability (Caco-2 [8]; 1000 nM) [%],cell viability (Caco-2 [8]; 10000 nM) [%],cell viability (Calu-3 [9]; 1 nM) [%],cell viability (Calu-3 [9]; 10 nM) [%],cell viability (Calu-3 [9]; 100 nM) [%],cell viability (Calu-3 [9]; 1000 nM) [%],cell viability (Calu-3 [9]; 10000 nM) [%],cell viability (U2OS [10]; 1 nM) [%],cell viability (U2OS [10]; 10 nM) [%],cell viability (U2OS [10]; 100 nM) [%],cell viability (U2OS [10]; 1000 nM) [%],cell viability (U2OS [10]; 10000 nM) [%],relative viability EC50 (HepG2 [11]) [µM],relative viability EC50 (Vero E6 [12]) [µM],relative viability EC50 (Caco-2 [13]) [µM],relative viability EC50 (Calu-3 [14]) [µM],relative viability EC50 (U2OS [15]) [µM]
COc1cc2nccc(Oc3ccc(NC(=O)Nc4ccc(F)cc4F)c(F)c3)c2cc1OC [KI-8751],0,0,0,0,0,97.5,116,106,101,95.5,101,107,98.9,107,107,95.8,91.8,102,92.4,99.6,94.1,97.6,86.8,95.7,93.1,98.8,97.6,99.2,99.2,102,> 10,> 10,> 10,> 10,> 10
CC(C)C(=O)Nc1ncc(-c2cc(C(F)F)nn2-c2c(Cl)cccc2Cl)s1 [LIMKi-3],0,0,0,0,0,110,98,104,106,110,106,101,101,92.2,96,91.4,105,92.8,94.6,97.3,88.4,92.7,98.5,118,115,98.1,106,96.3,100,88.9,> 10,> 10,> 10,> 10,> 10
COC(=O)C(c1ccccc1)C1CCCCN1 (stereo not given) [METHYLPHENIDATE HYDROCHLORIDE],0,0,0,0,0,108,95.2,91.4,102,99,99.7,97.3,98.5,98.9,102,97,99.5,91.2,103,104,100,102,91.1,105,101,96.5,102,92.1,95.3,98.6,> 10,> 10,> 10,> 10,> 10
Cc1cnc(-c2ccccc2C(C)C)nc1NCc1ccc(-n2ccnn2)cc1 [ML323],0.8,0,0.5,0,0,99.1,94.2,112,96.5,82.2,89.6,90,87.6,89.7,99.4,90.2,101,92.2,95.8,81,91.6,108,105,97.3,110,94.9,103,95.8,102,97.9,> 10,> 10,> 10,> 10,> 10
NC(=O)CNCCC(c1ccccc1)c1ccccc1 [N20C],0,0,0,0,0,97.3,93.6,106,111,94.9,96.9,106,98.2,98.1,97.6,107,98.4,89.4,97.2,103,109,97.5,96.6,99.4,106,106,99.4,100,99.2,102,> 10,> 10,> 10,> 10,> 10
CC(=O)N[C@@H](Cc1ccc(O)cc1)C(=O)O [N-acetyl-tyrosine],0,0,0,0,0,93.9,88.5,93.8,97.7,98.2,98.6,93.4,94.3,95,101,92.7,92.8,91,95.6,102,105,107,108,106,94.6,95.3,101,96.6,101,107,> 10,> 10,> 10,> 10,> 10
CN1CCN(c2ccc3ccccc3n2)CC1 [N-methylquipazine],0,0,0,0,0,99.4,96.1,98,102,111,97.7,97.8,95.7,97.1,111,102,91.4,104,97.3,102,106,96.2,99.2,96.4,95.1,101,99.4,102,96.8,98.9,> 10,> 10,> 10,> 10,> 10
CC(C)NCCN(C(C)C)S(=O)(=O)c1ccc(Cl)cc1Cl [RN-1734],0.4,0,0,0,0,99.8,89.7,102,96.8,85.9,97,100,94.2,96.7,91.2,105,95.1,97.1,94.6,97.4,97.1,101,95.6,99.8,99.6,99.3,98.4,101,95.4,94.7,> 10,> 10,> 10,> 10,> 10
Cc1ccc(O)c(N=Nc2ccccc2)n1 [SIB-1757],0,0,0.1,0,0,108,110,107,108,94.5,98.1,94.6,96.7,99,92.5,92.4,103,98.6,103,86.2,99.8,107,111,99.9,92.8,104,107,102,103,95.9,> 10,> 10,> 10,> 10,> 10
C=CCN1C[C@H](C)N([C@H](c2ccc(C(=O)N(CC)CC)cc2)c2cccc(OC)c2)C[C@H]1C [SNC-80],0,0,0,0,0,99.9,84.6,100,106,97.4,106,97.7,105,102,101,92.1,99.2,101,95.5,93.7,93.4,98.8,101,91.2,104,98.4,103,93.4,99.4,94.7,> 10,> 10,> 10,> 10,> 10
CC[C@H](/C=C/[C@@H](C)[C@H]1CC[C@H]2[C@@H]3CC=C4C[C@@H](O)CC[C@]4(C)[C@H]3CC[C@]12C)C(C)C [Stigmasterol (Stigmasterin)],0,0,0,0,0,103,109,92.9,92.8,105,99,104,99.4,106,102,102,107,94.6,93.5,96.9,95,103,110,102,104,105,96.4,100,99.3,99.4,> 10,> 10,> 10,> 10,> 10
Cc1ccc(-c2csc3ncnc(SCCC(=O)O)c23)cc1 [TTP-22],0,0,0,0,0,103,92.3,95.6,100,108,97.1,94,102,101,102,103,96.5,97.3,95,97.4,101,87.5,93.4,99.4,96.3,97.3,102,99,99,104,> 10,> 10,> 10,> 10,> 10
CCCCNc1ncc(-c2ccc(CN3CCOCC3)cn2)c(N[C@H]2CC[C@H](O)CC2)n1 [UNC2250],0,0,0,0,0,108,102,109,97.7,100,101,99.6,94.5,91.9,99.1,97.1,103,105,108,103,102,102,94.7,108,98.9,97.9,98.8,99.9,100,94.8,> 10,> 10,> 10,> 10,> 10
